Data on three molecules can be found in patent US9358281B2, “Methods, agents and peptides for inducing an innate immune response in HIV vaccination” (New York University, priority 2009, dated 2016).

Entries after “also recorded” stand apart in the source; their conditions may differ. Where two headings read alike, the source gives them in different places.

Common to all, as to format: cell-based, human
Assay [1] relates to monocyte-derived dendritic cells (MDDC). To be noted: for effect on MDDC activation (CD86 in GFP+) by HIVGFP(G)+SIVVLP(G): inhibitor added within the first 24 hours of infection.
A further assay deals with naive CD4+ T cells. The experiment in a line: Naive T cell proliferation assay (CFSE dilution) with infected DC and anti-CD3. To be noted: 25 μM AZT or 1 μM SCY. How it is done:
Naive T cell proliferation assay: 48 h after infection, naive T cells were labeled with CFSE (eBioscience) as described previously (Antons et al., 2008). DC were infected with dilutions of SIVVLP(G) and pLaiΔEnv-GFP3(G) WT (indicated as HIVGFP(G)) or G89V. AZT was added at the time of infection and SCY was added from 3 to 8 hours after infection. 48 hours after infection, half of the DC was processed for surface staining and cytometry. The other half was washed with media and resuspended in fresh media without cytokines. 20,000 T cells were mixed with DC at a DC to T ratio of 1:5 and 1:15. Cells were stimulated by dilutions of anti-CD3 (OKT3 hybridoma supernatant, approximately 1-100 ng/ml) in a total volume of 150 to 200 μl in round bottom 96-well plates. Cells were harvested and analyzed by flow cytometry at day 4 or day 5 postactivation.

The next assay has as its system STAT1. The experiment in a line: Immunoblot of phospho-STAT1 over time in MDDC. To be noted: after treatment or infection. Here is the method:
Western blot analysis: Cells were lysed in 1% NP-40, 50 mM Tris pH 8, 120 mM NaC, 4 mM EDTA, 50 mM NaF, 1 mM NA3VO4 and a protease inhibitors cocktail (Roche). Total lysates were resolved on SDS-PAGE, transferred to PVDF membranes and probed with primary antibodies and corresponding HRP-conjugated secondary antibodies.
Western blot analysis: Cells were lysed in 1% NP-40, 50 mM Tris pH 8, 120 mM NaCl, 4 mM EDTA, 50 mM NaF, 1 mM NA3VO4 and a protease inhibitor cocktail (Roche). Total lysates were resolved on SDS-PAGE, transferred to PVDF membranes and probed with primary antibodies and corresponding HRP-conjugated secondary antibodies (GE Healthcare).

`Cc1cn([C@H]2C[C@H](N=[N+]=[N-])[C@@H](CO)O2)c(=O)[nH]c1=O` [AZT, Zidovudine]: in assay [1], the “effect on LPS- or poly(I:C)-induced CD86 up-regulation” value was “had no effect”; the “effect on MDDC activation (CD86 in GFP+) by HIVGFP(G)+SIVVLP(G)” value was “blocked activation; also recorded: inhibited transduction efficiency and MDDC activation”. For the same molecule, the “ability of treated, HIVGFP(G) and SIVVLP(G) infected DC to induce proliferation” value with naive CD4+ T cells was “reduced ability to induce proliferation”.
Turning to lipopolysaccharide [LPS], the “time at which STAT1 phosphorylation was present” value in the assay with STAT1 amounted to 2 h.
`Cc1nnc(C(=O)NC(C)(C)c2nc(C(=O)NCc3ccc(F)cc3)c(O)c(=O)n2C)o1` [RAL, Raltegravir]: the “effect on LPS- or poly(I:C)-induced CD86 up-regulation” value in assay [1] is recorded as “had no effect”. Moreover, the “effect on MDDC activation (CD86 in GFP+) by HIVGFP(G)+SIVVLP(G)” value in assay [1] was “blocked activation”; in assay [1] (listed as Raltegravir), “inhibited transduction efficiency and MDDC activation”.
